Where two headings read alike, the source gives them in different places.
Biological target: T1, dehydropeptidase-I (renal dipeptidase, EC 3.4.13.11) (Sus scrofa, UniProt P22412)
T1 construct: isolated from hog kidneys; from tissue; host or cells: hog kidney, solubilized and lyophilized enzyme preparation
T1 sequence (P22412 17-409): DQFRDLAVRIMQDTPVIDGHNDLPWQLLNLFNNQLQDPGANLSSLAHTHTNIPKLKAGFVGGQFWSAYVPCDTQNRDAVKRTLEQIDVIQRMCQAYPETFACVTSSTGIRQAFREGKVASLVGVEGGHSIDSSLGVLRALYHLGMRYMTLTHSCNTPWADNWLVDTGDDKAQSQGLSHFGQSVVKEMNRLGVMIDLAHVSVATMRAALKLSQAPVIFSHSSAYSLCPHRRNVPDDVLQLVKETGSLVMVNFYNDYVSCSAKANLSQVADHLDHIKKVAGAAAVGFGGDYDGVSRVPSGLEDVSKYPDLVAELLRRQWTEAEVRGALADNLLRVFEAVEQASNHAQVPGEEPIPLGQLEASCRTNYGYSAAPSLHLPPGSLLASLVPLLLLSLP
Experiment: Renal dehydropeptidase I inhibition (hydrolysis of glycyldehydrophenylalanine)
Format: biochemical, hog
Protocol: This measured the ability of compounds to inhibit hydrolysis of glycyldehydrophenylalanine (GDP) by a solubilized preparation of […] isolated from hog kidneys. The procedure is as follows: to a 1 ml system containing 50 mM "MOPS" (3-(N-morpholino)propanesulfonic acid) buffer, pH 7.1, is added 5 μg of lyophilized enzyme, and the test compound at a final concentration of 0.1 mM. After a five minute incubation at 37° C., GDP is added to a final concentration of 0.05 mM. […] Inhibition of the enzyme is gauged by comparison to a standard run containing no inhibitor and is expressed as the inhibitor binding constant, Ki.

[1] = read-out: RENAL DEHYDROPEPTIDASE I INHIBITION Ki

Row | Ki [1] | SMILES | Ki
1 | 5.8 nM | CCCCCC=C(CP(=O)(O)C(C)N)C(=O)O (racemic) [DL, R5 n-pentyl, (E, Z isomers), 1-Aminoethyl-(2-carboxy-oct-2-enyl)phosphinic acid (E/Z mixture)] | 
2 |  | CC(CP(=O)(O)[C@@H](C)N)C(=O)O (stereo partly drawn) [D, R2 methyl, R3 H, 1-D-Aminoethyl-(2-carboxy-1-propyl)phosphinic acid] | 140 nM
3 |  | C=C(CP(=O)(O)[C@@H](C)N)C(=O)O [D, R5 H] | 230 nM
4 | 12 nM | CC(N)P(=O)(O)CC(CCCc1ccncc1)C(=O)O (stereo not drawn) [DL, R2 4-pyridylpropyl, 1-Aminoethyl-[2-carboxy-5-(4-pyridyl)-1-n-pentyl]-phosphinic acid] | 
5 |  | CC(CP(=O)(O)C(C)N)C(=O)O (stereo not drawn) [DL, R2 methyl, R3 H, 1-Aminoethyl-(2-carboxy-1-propyl)phosphinic acid] | 10 nM
6 | 7 nM | CC(N)P(=O)(O)C/C(=C/CCc1ccccc1)C(=O)O (stereo not drawn) [DL, R5 phenethyl, E] | 
7 | 16 nM | CC(N)P(=O)(O)C/C(=C\CCc1ccccc1)C(=O)O (stereo not drawn) [DL, R5 phenethyl, Z, 1-Aminoethyl-(2-carboxy-5-phenyloct-2-enyl)phosphinic acid (E and Z isomers)] | 
8 |  | CC(CP(=O)(O)[C@H](C)N)C(=O)O (stereo partly drawn) [L, R2 methyl, 1-L-Aminoethyl-(2-carboxy-1-propyl)phosphinic acid] | 10 nM
9 |  | C[C@H](N)P(=O)(O)CC(CCCc1ccccc1)C(=O)O (some centres unmarked) [L, R2 phenylpropyl] | 27 nM
10 |  | C=C(CP(=O)(O)[C@H](C)N)C(=O)O [L, R5 H] | 27 nM

Row | SMILES | Ki [1] | Ki
11 | C[C@@H](N)P(=O)(O)CC(CCCc1ccccc1)C(=O)O (some centres unmarked) [D, R2 phenylpropyl] | 1000 nM | 
